What all share (assay): relative viability (nuclei count vs DMSO), 5 days (fraction); higher = more cells survive
Compound in the assay “Tivantinib + Alpelisib”: O=C1NC(=O)[C@@H](c2cn3c4c(cccc24)CCC3)[C@@H]1c1c[nH]c2ccccc12 [Tivantinib] + Cc1nc(NC(=O)N2CCC[C@H]2C(N)=O)sc1-c1ccnc(C(C)(C)C(F)(F)F)c1 [Alpelisib] (partner 2 µM)
An outline of the steps:
(§1)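 Five library-drug doses in √10 steps were combined with a fixed anchor-drug dose, or a single drug was given alone, by pin tool to lung cancer cell lines in 1536-well plates the day after seeding. Nuclei were stained and counted after 5 days. Relative viability is the nuclei count in treated wells over that in vehicle wells, taken as the median of duplicate plates.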

Compound in the assay “Crenolanib + OSI-027”: CC1(COc2ccc3c(c2)ncn3-c2ccc3cccc(N4CCC(N)CC4)c3n2)COC1 [Crenolanib] + COc1cccc2cc(-c3nc([C@H]4CC[C@H](C(=O)O)CC4)n4ncnc(N)c34)[nH]c12 [OSI-027] (partner 0.5 µM)
The gist of the method: as §1

Compound in the assay “Crenolanib + AZD7762”: CC1(COc2ccc3c(c2)ncn3-c2ccc3cccc(N4CCC(N)CC4)c3n2)COC1 [Crenolanib] + NC(=O)Nc1cc(-c2cccc(F)c2)sc1C(=O)N[C@H]1CCCNC1 [AZD7762] (partner 0.2 µM)
The gist of the method: as §1

Compound in the assay “Crenolanib + Tozasertib”: CC1(COc2ccc3c(c2)ncn3-c2ccc3cccc(N4CCC(N)CC4)c3n2)COC1 [Crenolanib] + Cc1cc(Nc2cc(N3CCN(C)CC3)nc(Sc3ccc(NC(=O)C4CC4)cc3)n2)n[nH]1 [Tozasertib] (partner 0.1 µM)
An outline of the steps:
as §1

For PC-14, the relative viability with Tivantinib + Alpelisib (first compound 0.01 µM) turned out to be 0.874; in the assay with Tivantinib + Alpelisib (first compound 0.03162 µM) it was 0.927; with Tivantinib + Alpelisib (first compound 0.1 µM) it was 0.945; with Tivantinib + Alpelisib (first compound 0.3162 µM), 0.892; with Crenolanib + OSI-027 (first compound 0.01 µM) it was 0.883; in the assay with Crenolanib + OSI-027 (first compound 0.03162 µM), 0.776. In addition, the relative viability with Crenolanib + OSI-027 (first compound 0.1 µM) was 0.764; with Crenolanib + OSI-027 (first compound 0.3162 µM), 0.816; with Crenolanib + OSI-027 (first compound 1 µM) it was 0.617; in the assay with Crenolanib + AZD7762 (first compound 0.01 µM) it was 0.39; in the assay with Crenolanib + AZD7762 (first compound 0.03162 µM) it was 0.305; with Crenolanib + AZD7762 (first compound 0.1 µM), 0.36. Also, the relative viability was 0.281 with Crenolanib + AZD7762 (first compound 0.3162 µM); 0.328 with Crenolanib + AZD7762 (first compound 1 µM); 0.697 with Crenolanib + Tozasertib (first compound 0.01 µM); 0.573 in the assay with Crenolanib + Tozasertib (first compound 0.03162 µM); 0.554 with Crenolanib + Tozasertib (first compound 0.1 µM); 0.533 in the assay with Crenolanib + Tozasertib (first compound 0.3162 µM). For the same cell line, the relative viability with Crenolanib + Tozasertib (first compound 1 µM) is 0.413.

For the cell line CAL-12T, the relative viability was found to be 1.19 with Tivantinib + Alpelisib (first compound 0.01 µM); 1.32 with Tivantinib + Alpelisib (first compound 0.03162 µM); 1.09 with Tivantinib + Alpelisib (first compound 0.1 µM); 0.8 with Tivantinib + Alpelisib (first compound 0.3162 µM); 0.844 with Crenolanib + OSI-027 (first compound 0.01 µM); 0.634 with Crenolanib + OSI-027 (first compound 0.03162 µM). Also, the relative viability was determined as 0.643 with Crenolanib + OSI-027 (first compound 0.1 µM); 0.712 with Crenolanib + OSI-027 (first compound 0.3162 µM); 0.693 with Crenolanib + OSI-027 (first compound 1 µM); 0.778 with Crenolanib + AZD7762 (first compound 0.01 µM); 0.553 in the assay with Crenolanib + AZD7762 (first compound 0.03162 µM); 0.641 with Crenolanib + AZD7762 (first compound 0.1 µM). The relative viability with Crenolanib + AZD7762 (first compound 0.3162 µM) is 0.634; with Crenolanib + AZD7762 (first compound 1 µM), 0.799; in the assay with Crenolanib + Tozasertib (first compound 0.01 µM) it was 0.314; with Crenolanib + Tozasertib (first compound 0.03162 µM), 0.349; with Crenolanib + Tozasertib (first compound 0.1 µM), 0.294; with Crenolanib + Tozasertib (first compound 0.3162 µM), 0.343. The relative viability with Crenolanib + Tozasertib (first compound 1 µM) stood at 0.36.

The record behind these values is the supplement of paper PMC10307832.
